Patent US20030207813A1, “Retroviral protease inhibitor combinations” (priority 1995, published 2003)
Converted amounts (≈) assume the structure as drawn.

test system: SF162R (resistant strains selected from SF162 against Example 1); assay: Acute infectivity assay in PHA-activated donor lymphocytes, resistant isolate SF162R; type: cell-based, HIV-1; details: Human immunodeficiency virus 1, Lymphocyte, Table 1, read-out: Virus Isolate (EC50 ng/mL) SF162R
Protocol: Approximately 3×10^7 cells are activated for 48 hours with about 3-5 μg/ml PHA in RPMI continuing 10% fetal bovine serum and IL-2 (10 U/ml). Quantitated virus stocks are added to the activated lymphocyte suspension at a multiplicity of infection of about 0.001-0.01. The cell-virus suspension is incubated at 37° C. for 2 hours to allow virus absorption. The residual virus inoculum is removed by centrifugation and the cells are resuspended in RPMI containing 10% FBS and 10 U/ml IL-2. These infected cells are added to the test-article diluted in complete tissue culture medium from a stock (10 mg/ml) in DMSO in 96 well microtiter plates to give about 5×10^5 cells per well per 200 μl. Infected, untreated cells and cells treated with DMSO alone (0.1%) or either AZT or DDI were used as controls. The cultures were examined for syncytia formation on days 7 and 11 post-infection or the supernants tested for reverse transcriptase activity or p24 antigen.
RF represents the HIV-1 strain HIV-LRF and RFR represents a mixture of resistant strains obtained by selection of RF against the compound of Example 1. RFR comprises a mixture of viral strains having protease genotypes of G48V (14/40 clones); G48V, V82A (18/40 clones); G48V, L90S (2/40 clones); G48V, 154T, V82A (1/40 clones); G48M (1/40 clones); G48V, Q61H (1/40 clones); V13I, G48V (1/40 clones); G48V, F53L, V82A (1/40 clones); and G48V, V82A, C95Y (1/40 clones). RFR2 represents a mixture of resistant strains obtained by cloning RFR by three rounds of growth at limiting dilution. RFR2 comprises a mixture of viral strains having protease genotypes of G48V, V82A (13/15 clones); G17E, G48V, V82A (1/15 clones); and G48V, V82A, N37D, N88D (1/15 clones). RFRR represents a mixture of resistant strains obtained by selection of RF against the compounds of Examples 1 and 2 and then cloning by three rounds of growth at limiting dilution. RFRR comprises a mixture of viral strains having protease genotypes of G48V, 154T, L63P, V82A (7/9 clones); G48V, 154T, L63P, V82A, N88S (1/9 clones); and G48V, 154T, L63P, G73M, V82A (1/9 clones). SF162 represents the HIV-1 strain SF-162 and SF162R represents a mixture of resistant strains obtained by selection of SF162 against the compound of Example 1. SF162R comprises a mixture of viral strains having protease genotypes of M461, F53L, L63P, A71V, N88D (2/3 clones); and M46I, F53L, L63P, A71V, N88D, Q92R (1/3 clones). 89-959 represents the HIV-1 strain 89-959 and 89-959R represents a mixture of resistant strains obtained by selection of 89-959 against the compound of Example 2. 89-959R comprises a mixture of viral strains having protease genotypes of N88S (4/5 clones); and D25N, T26A, D30N, D37N, R41K, G73D, R87K, N88S (1/4 clones). NL4 represents the HIV-1 strain HIV-1NL4-3. NL4(G48V) represents a strain having a synthetically generated site-directed mutation in the protease from glycine to valine at amino acid position number 48. NL4(I84V) represents a strain having a synthetically generated site-directed mutation in the protease from isoleucine to valine at amino acid position number 84. NL4(R8Q,M46I) represents a strain having synthetically generated site-directed mutations in the protease from arginine to glutamine at amino acid position number 8 and methionine to isoleucine at amino acid position number 46. NL4(P22-538) represents a mixture of resistant strains obtained by selection of HIV-1NL4-3 against the compound of Example 10 after 22 passages comprising protease genotypes M46I, L63P, A71V, V82F, I84V (4/10); M46I, L63P, V82F, I84V (3/10); and M46I, A71V, V82F, I84V (3/10). NL4(P37-538) represents resistant strains obtained by selection of HIV-1NL4-3 against the compound of Example 10 after 37 passages comprising protease genotype M46I, L63P, A71V, 184A. NL4(538/524) represents resistant strains obtained by selection of NL4(P22-538) against the compound of Example 5 after 24 passages comprising protease genotype M46I, L63P, A71V, 184A. […]

SMILES	EC50 [ng/mL]
CNCC(=O)N[C@H](C(=O)N[C@@H](Cc1ccccc1)[C@H](O)CN(CCC(C)C)C(=O)NC(C)(C)C)C(C)(C)C [Example 2, (2R,3S)-3-(N-methylaminoacetyl-L-tert-butylglycinyl)amino-1-(N-isoamyl-N-(tert-butylcarbamoyl))amino-4-phenyl-2-butanol]	6 (≈ 0.0112 µM)
CC(C)(C)NC(=O)[C@@H]1CC2CCCC[C@@H]2CN1C[C@@H](O)[C@H](Cc1ccccc1)NC(=O)[C@H](CC(N)=O)NC(=O)c1ccc2ccccc2n1 (stereo in doubt) [Example 6, N-tert-Butyl decahydro-2-[2(R)-hydroxy-4-phenyl-3(S)-[[N-(2-quinolylcarbonyl)-L-asparaginyl]amino]butyl]-(4aR,8aS)-isoquinoline-3(S)-carboxamide]	11 (≈ 0.0164 µM)
CC(C)CN(C[C@@H](O)[C@H](Cc1ccccc1)NC(=O)[C@H](CC(N)=O)NC(=O)c1ccc2ccccc2n1)C(=O)NC(C)(C)C (relative stereo) [Example 1, [1S-[1R*(R*),2S*]]-N^1-[3-[[[(1,1-dimethylethyl)amino]carbonyl])2-methylpropyl)amino]-2-hydroxy-1-(phenylmethyl)propyl]-2-[(2-quinolinylcarbonyl)amino]-butanediamide]	443 (≈ 0.733 µM)

same assay, conditions: Human immunodeficiency virus 1, Lymphocyte, Table 2, read-out: Virus Isolate (EC50 ng/mL) SF162R

SMILES	EC50 [ng/mL]
CC(C)CCN(C[C@@H](O)[C@H](Cc1ccccc1)NC(=O)[C@H](CC(N)=O)NC(=O)c1ccc2ccccc2n1)C(=O)NC(C)(C)C (relative stereo) [Example 7, [1S-[1R*(R*),2S*]]-N^1-[3-[[[(1,1-dimethylethyl)amino]carbonyl](3-methylbutyl)amino]-2-hydroxy-1-(phenylmethyl)propyl]-2-[(2-quinolinylcarbonyl)amino]-butanediamide]	108 (≈ 0.175 µM)
CC(C)CN(C[C@@H](O)[C@H](Cc1ccccc1)NC(=O)[C@H](CC(N)=O)NC(=O)c1ccc2ccccc2n1)S(=O)(=O)NC(C)(C)C [Example 8, N-[3-[N^2-[N^1-(1,1-dimethylethyl)aminosulfonyl]-N^2-(2-methylpropyl)amino]-2R-hydroxy-1S-(phenylmethyl)propyl]-2S-[(2-quinolinylcarbonyl)amino]butanediamide]	98 (≈ 0.153 µM)
CC(C)CN(C[C@@H](O)[C@H](Cc1ccccc1)NC(=O)[C@H](CC(N)=O)NC(=O)c1ccc2ccccc2n1)C(=O)NC(C)(C)C (relative stereo) [Example 1, [1S-[1R*(R*),2S*]]-N^1-[3-[[[(1,1-dimethylethyl)amino]carbonyl])2-methylpropyl)amino]-2-hydroxy-1-(phenylmethyl)propyl]-2-[(2-quinolinylcarbonyl)amino]-butanediamide]	111 (≈ 0.184 µM)
